Entries after “also recorded” stand apart in the source; their conditions may differ. Like-named read-outs stand apart in the source and are kept apart here. Numbered stars: 1 amine (or outer) side, 2 acyl side, 3 side chain; on linkers, the order of the positions; unused ones are H or OH. Bridge positions count the residues as written; N and C are the ends. Square brackets hold non-standard residues; d marks the D form. Peptide text beside a SMILES is read from it. I, II: the chains in the order shown. Actinocin(9to1) = Cc1c2oc3c(C)ccc(C(=O)[*:1])c3nc-2c(C(=O)[*:2])c(N)c1=O; NMeV = CN[C@H](C(=O)O)C(C)C; Sar = CNCC(=O)O
Columns and labels:
[1] = system: tumor cell lines or primary cultures of rat neuronal cells; conditions: continued exposure; cited from earlier work
MCF-7 cells [2] = system: MCF-7 cells
Description: (§1) Human breast tumor cell lines (MCF-7, T47D, SKBr3, and MCF-7/Adr^−) were cultured in DMEM containing 3.7 g/liter Na2HCO3, fetal bovine serum (10%), and insulin (10 mg/liter). For cytotoxicity assays, cells were transferred to DMEM+Ham's nutrient mixture F-12 (without phenol red), with 1.2 g/liter Na2HCO3. Cells were seeded at 100,000 cells/well. Human SK-N-SH neuroblastoma and DU-145 prostate carcinoma cells were cultured in DMEM, supplemented with fetal bovine serum (10%).
(§2) Cell death was assessed by release of lactate dehydrogenase (LDH) into the culture medium using the CytoTox 96 kit from Promega (Madison, Wis.). The method used was as specified by manufacturer with minor modifications. Cells were plated and cultured in 24-well plates for 1 to 2 days prior to the experiment. Cells were treated in the plates under the specified drug conditions. Following treatment, the medium was transferred to centrifuge tubes and centrifuged to remove cell debris. Supernatant (50 μl) was transferred to a 96-well plate, to which was added substrate mix in assay buffer, followed by stop solution after a 30 min incubation. Formation of formazan was monitored at 490 nm in a plate reader. Values are expressed relative to total lysis controls (Triton X-100 was used to determine value for 100% cell kill) and no drug-controls. Doxorubicin and caspase inhibitors (Z-VAD-FMK, Y-VAD-CHO, DEVD-CHO) were obtained from Calbiochem (San Diego, Calif.) and actinomycin-D from Sigma (St. Louis, Mo.).

MCF-7/Adr^− cells = assay: Cytotoxicity assay, LDH release into culture medium
Description: as §1, §2

[3] = up to 100 mg orally every four hours, 30 mg IV and 60 mg IM; cited from earlier work
sigma-2 receptor = conditions: cited from earlier work; for sigma receptor subtype selectivity: sigma-2 vs sigma-1
[4] = system: SK-N-SH neuroblastoma cells; conditions: cited from earlier work
SKBr3 cells = assay: Cytotoxicity assay, LDH release into culture medium; assay type: cell-based, human; conditions: various concentrations, FIG. 3A
Description: (§3) Cells were seeded at 100,000 cells/well.

T47D cells [5] = assay: as above; assay type: cell-based, human; conditions: various concentrations, FIG. 3B
Description: as §3

breast tumor cell lines = assay: Cytotoxicity (LDH release) across breast tumor cell lines; assay type: cell-based, human; conditions: for effect of p53 status on cytotoxic potency: mutant p53 (MCF-7/Adr^−, SKBr3, T47D) vs wild-type p53 MCF-7, FIG. 4B; for relative cytotoxic potency: FIG. 3A, 3B, 4B
Description: as §3

MCF-7 cells [6] = assay: Detection of apoptosis by the TUNEL method; assay type: cell-based, human; conditions: 100 μM, 48 hours; for TUNEL assay result: FIG. 2
Description: as §3
(§4) DNA fragmentation occurring during apoptosis can be detected by incorporating fluorescein-12-dUTP at the 3′-OH DNA ends using the enzyme, terminal deoxynucleotidyl transferase (TdT). TUNEL (TdT-mediated dUTP Nick-End Labeling) was performed using the Apoptosis Detection System, Fluorescein Kit (Promega, Madison, Wis.) according to the manufacturer's specification. After treatment with sigma ligands at the concentrations and times specified, cells were fixed with 4% formaldehyde, permeabilized with Triton X-100, and incubated with fluorescein-12-dUTP and terminal deoxynucleotidyl transferase and then with propidium iodide. Propidium iodide stains the DNA in both apoptotic and non-apoptotic cells with orange-red color. Fluorescein produces yellow-green fluorescence, indicating fragmented DNA within the nucleus of apoptotic cells. Filters used: excitation 450-490 nm, barrier 520 nm.

T47D cells [7] = assay type: cell-based, human
Description: as §3, §4

MCF-7 cells [8] = assay: Detection of apoptosis by Annexin V binding; assay type: cell-based, human; conditions: drug 100 μM; Z-VAD-FMK or Y-VAD-CHO 50 μM; 48 hours; FIG. 5
Description: as §3
The early stages of apoptosis are characterized by translocation of phosphatidyl serine (PS) from the inner surface of the plasma membrane to the outer surface of the membrane. Externalized PS can then be detected using Annexin V, a protein with high affinity for PS. This was carried out using the ApoAlert Annexin V Apoptosis Kit (Clontech, Palo Alto, Calif.) according to the manufacturer's specifications. After incubation with sigma ligands at the concentrations and times specified, live cells (without fixing) were incubated with annexin V-FITC and propidium iodide, and were investigated using fluorescence microscopy. […] Filters used: excitation 450 nm, barrier 535 nm.

[9] = system: breast tumor cell lines possessing p53 mutations; conditions: Crawford et al., 1999; cited from earlier work
SKBr3 cell lines = assay type: cell-based, human
Description: as §3, §4

For 12-methoxyibogamine [ibogaine], the “cell morphological changes and cell death” value [1] is listed as “activity”.
In the case of CC(C)=CCN1CCC2(C)c3cc(O)ccc3CC1C2C (racemic) [pentazocine], the “potentiation of doxorubicin-induced cytotoxicity” value (MCF-7 cells [2]; combined with doxorubicin in MCF-7 cells) is given as “Little or no potentiation”, the “potentiation of doxorubicin-induced cytotoxicity” value (MCF-7/Adr^− cells; haloperidol 25 μM or pentazocine 35 μM with various concentrations of doxorubicin, FIG. 8) is given as “potentiated the cytotoxicity of doxorubicin; also recorded: potentiated the higher doses of doxorubicin” and the peak plasma concentrations [3] is given as “about 160 ng/ml”.
For CC(C)=CCN1CCC2(C)c3cc(O)ccc3CC1C2C (single isomer, unassigned; (+)) [(+)-pentazocine], the sigma-2 affinity (sigma-2 receptor) is given as “binds very weakly” and the “cell morphological changes and cell death” value [1] is given as “lack of activity”.
For CC(C)=CCN1CCC2(C)c3cc(O)ccc3CC1C2C (single isomer, unassigned; (-)) [(−)-Pentazocine], the sigma-2 affinity (sigma-2 receptor) is given as “has sigma-2 affinity”.
In the case of CN(C)CCN(C)CCc1ccc(Cl)c(Cl)c1 [BD1047], the “antagonist activity in the calcium assay” value ([4]; pH 7.2) is given as “ineffective” and the “antagonist activity in the calcium assay” value ([4]; pH 8.2) is given as “effectively attenuated agonist activity”.
In the case of CN1CCN(CCc2ccc(Cl)c(Cl)c2)CC1 [BD1063], the “antagonist activity in the calcium assay” value ([4]; pH 7.2) is given as “ineffective” and the “antagonist activity in the calcium assay” value ([4]; pH 8.2) is given as “effectively attenuated agonist activity”.
With CN1CC[C@]2(c3cccc(O)c3)CC(=O)/C(=C/c3ccccc3)[C@H]1C2 [CB-64D, (+)-1R,5R-E-8-benzylidene-5-(3-hydroxyphenyl)-2-methylmorphan-7-one] the “cytotoxicity (LDH release, percentage of total cell kill)” value (SKBr3 cells) was “cytotoxic”, the “cytotoxicity (LDH release, percentage of total cell kill)” value (T47D cells [5]) was “cytotoxic” and the “potency relative to CB-184 (fold less potent)” value (breast tumor cell lines; intact cells) was “about 10 fold”. The “effect of p53 status on cytotoxic potency” value (breast tumor cell lines) was “generally not affected by p53 status; also recorded: comparable”, the “extent of apoptotic changes / apoptotic nuclei (TUNEL)” value (MCF-7 cells [6]) was “extensive apoptotic changes” and the TUNEL assay result (MCF-7 cells [6]) was “positive results”. The “cells visualized displaying apoptotic nuclei” value (MCF-7 cells [6]; in some experiments) was “up to 100%”, the TUNEL assay result (T47D cells [7]; 100 μM, 48 hours, FIG. 2) was “positive results” and the “effect of caspase inhibitors on drug-induced apoptosis (Annexin V binding)” value (MCF-7 cells [8]) was “unaffected by co-treatment with caspase inhibitors”. The “sigma receptor subtype selectivity” value (sigma-2 receptor) was “sigma-2 subtype-selective”, the “cell morphological changes and cell death” value [1] was “activity” and the induction of apoptosis [9] was “induce apoptosis”.
In the case of CN1CC[C@]2(c3cccc(O)c3)CC(=O)/C(=C/c3ccc(Cl)c(Cl)c3)[C@H]1C2 [CB-184, (+)-1R,5R-E-8-(3,4-dichlorobenzylidene)-5-(3-hydroxyphenyl)-2-methylmorphan-7-one], the “cytotoxicity of combination with doxorubicin” value (MCF-7 cells [2]; CB184 1 μM + doxorubicin 10 μM, 24 and 48 hours, FIG. 7A, 7B) is reported as “Clear synergistic effects”, the “effect of DEVD-CHO on cytotoxicity (LDH release)” value (MCF-7 cells [2]; DEVD-CHO 50 μM, caspase 3 inhibitor, FIG. 6A, 6B) is reported as “no difference” and the “effect of caspase inhibitors on drug-induced cytotoxicity (LDH release)” value (MCF-7 cells [2]; DEVD-CHO or Z-VAD-FMK 50 μM, FIG. 6A-6C) is reported as “not that induced by CB-184”. For the same compound, the “cytotoxicity of combination with actinomycin D” value (MCF-7/Adr^− cells; CB184 1 μM + actinomycin D 1 μg/ml at 24 hours or 0.1 μg/ml at 48 hours, FIG. 7C, 7D) was “potentiated”, the “cytotoxicity of combination with doxorubicin” value (MCF-7/Adr^− cells; CB184 1 μM + doxorubicin 10 μM) was “less pronounced” and the “cytotoxicity (LDH release, percentage of total cell kill)” value (SKBr3 cells) was “cytotoxic”. The “cytotoxicity (LDH release, percentage of total cell kill)” value (T47D cells [5]) was “cytotoxic”, the “concentration below which toxicity is generally not seen in the LDH assay” value (breast tumor cell lines; 24 hrs) was “below 1 μM” and the relative cytotoxic potency (breast tumor cell lines; intact cells) was “more potent than CB-64D; also recorded: most potent sigma-2 selective agent in intact cells”. For the same compound, the relative cytotoxic potency (breast tumor cell lines; intact cells, listed as CB184) was “greatest potency in all cell lines tested”, the “LDH release compared to controls” value (breast tumor cell lines; below 1 μM, 48 hrs) was “mildly increased LDH release” and the “effect of p53 status on cytotoxic potency” value (breast tumor cell lines) was “generally not affected by p53 status; also recorded: comparable”. The “sigma receptor subtype selectivity” value (sigma-2 receptor) was “sigma-2 subtype-selective”.
For Cc1c2oc3c(C)ccc(C(=O)N[C@@H]4C(=O)N[C@H](C(C)C)C(=O)N5CCC[C@H]5C(=O)N(C)CC(=O)N(C)[C@@H](C(C)C)C(=O)O[C@@H]4C)c3nc-2c(C(=O)N[C@@H]2C(=O)N[C@H](C(C)C)C(=O)N3CCC[C@H]3C(=O)N(C)CC(=O)N(C)[C@@H](C(C)C)C(=O)O[C@@H]2C)c(N)c1=O [actinomycin D] (I: T[dV]P[Sar][NMeV] / II: T[dV]P[Sar][NMeV]; ester I:1-I:C, II:1-II:C; linker I:N-II:N via Actinocin(9to1)), the induction of apoptosis (SKBr3 cell lines) is given as “apoptosis was induced”, the induction of apoptosis (T47D cells [7]) is given as “apoptosis was induced” and the induction of apoptosis [9] is given as “greatly attenuated”.
For O=P1(N(CCCl)CCCl)NCCCO1 (stereo not shown) [cyclophosphamide], the induction of apoptosis (SKBr3 cell lines) was “apoptosis was induced” and the induction of apoptosis (T47D cells [7]) was “apoptosis was induced”.
For COc1cccc2c1C(=O)c1c(O)c3c(c(O)c1C2=O)C[C@@](O)(C(=O)CO)C[C@@H]3O[C@H]1C[C@H](N)[C@H](O)[C@H](C)O1 [doxorubicin], the LDH release (MCF-7 cells [2]; various concentrations, FIG. 6C) was “dose-dependent increase in LDH-release”, the TUNEL assay result (MCF-7 cells [6]) was “positive results” and the induction of apoptosis (SKBr3 cell lines) was “apoptosis was induced”. For the same compound, the induction of apoptosis (T47D cells [7]) was “apoptosis was induced”, the TUNEL assay result (T47D cells [7]; 100 μM, 48 hours, FIG. 2) was “positive results” and the “effect of caspase inhibitors on drug-induced apoptosis (Annexin V binding)” value (MCF-7 cells [8]) was “blocked apoptosis induced by doxorubicin”. The induction of apoptosis [9] was “greatly attenuated”.
For O=C(CCCN1CCC(O)(c2ccc(Cl)cc2)CC1)c1ccc(F)cc1 [haloperidol], the “extent of apoptotic changes / apoptotic nuclei (TUNEL)” value (MCF-7 cells [6]) was “less extensively than the more potent CB64D”, the TUNEL assay result (MCF-7 cells [6]) was “positive results” and the TUNEL assay result (T47D cells [7]; 100 μM, 48 hours, FIG. 2) was “positive results”. The “sigma receptor subtype selectivity” value (sigma-2 receptor) was “subtype non-selective” and the “cell morphological changes and cell death” value [1] was “cell death”.
In the case of OC(CCCN1CCC(O)(c2ccc(Cl)cc2)CC1)c1ccc(F)cc1 (stereo not shown) [reduced haloperidol], the “extent of apoptotic changes / apoptotic nuclei (TUNEL)” value (MCF-7 cells [6]) is reported as “less extensively than the more potent CB64D”, the TUNEL assay result (MCF-7 cells [6]) is reported as “positive results” and the TUNEL assay result (T47D cells [7]) is reported as “positive results”. The “sigma receptor subtype selectivity” value (sigma-2 receptor) was “subtype non-selective” and the “cell morphological changes and cell death” value [1] was “cell death”.

Reference: patent publication US20030171397A1 (priority 2003, published 2003)
